ChEMBL document CHEMBL5137026, “Novel deuterated Mnk1/2 protein degrader VNLG-152R analogs: Synthesis, In vitro Anti-TNBC activities and pharmacokinetics in mice” (Eur J Med Chem, 2022)
Each block holds one molecule with its values, some of them ahead of it.

How the values were obtained:
[1] = Half life in po dosed CD-1 mouse by LC/MS/MS analysis; assay type: ADME, organism-based; details: in vivo
[2] = MRT in po dosed CD-1 mouse by LC/MS/MS analysis; assay type: ADME, organism-based; details: in vivo
MDA-MB-468 [3] = test: Antiproliferative activity against human MDA-MB-468 cells measured after 6 days by MTT assay; assay type: functional; details: MDA-MB-468, 144 h, time 6 day
MDA-MB-231 [4] = test: Antiproliferative activity against human MDA-MB-231 cells measured after 6 days by MTT assay; assay type: functional; details: MDA-MB-231, 144 h, time 6 day
[5] = Cmax in po dosed CD-1 mouse by LC/MS/MS analysis; assay type: ADME, organism-based; parameters: route po; details: in vivo
[6] = Tmax in po dosed CD-1 mouse by LC/MS/MS analysis; assay type: ADME, organism-based; details: in vivo
[7] = AUC in po dosed CD-1 mouse by LC/MS/MS analysis; assay type: ADME, organism-based; parameters: route po; details: in vivo
MDA-MB-231 [8] = test: Downregulation of Mnk1 in human MDA-MB-231 cells measured after 24 hrs by SDS PAGE based Western blotting analysis; assay type: functional, cell-based
MDA-MB-231 [9] = test: Induction of apoptosis in human MDA-MB-231 cells assessed as downregulation of […] measured after 24 hrs by SDS PAGE based Western blotting analysis; assay type: functional, cell-based
MDA-MB-468 [10] = test: Induction of apoptosis in human MDA-MB-468 cells assessed as downregulation of […] measured after 24 hrs by SDS PAGE based Western blotting analysis; assay type: functional, cell-based
MDA-MB-468 [11] = test: Induction of apoptosis in human MDA-MB-468 cells assessed as downregulation of Bcl-2 measured after 24 hrs by SDS PAGE based Western blotting analysis; assay type: functional, cell-based
MDA-MB-231 [12] = test: Downregulation of PeIF4E in human MDA-MB-231 cells measured after 24 hrs by SDS PAGE based Western blotting analysis; assay type: functional, cell-based
MDA-MB-468 [13] = test: Induction of apoptosis in human MDA-MB-468 cells assessed as upregulation of Bax measured after 24 hrs by SDS PAGE based Western blotting analysis; assay type: functional, cell-based
MDA-MB-231 [14] = test: Induction of apoptosis in human MDA-MB-231 cells assessed as downregulation of Bcl-2 measured after 24 hrs by SDS PAGE based Western blotting analysis; assay type: functional, cell-based
MDA-MB-231 [15] = test: Induction of apoptosis in human MDA-MB-231 cells assessed as upregulation of Bax measured after 24 hrs by SDS PAGE based Western blotting analysis; assay type: functional, cell-based
MDA-MB-231 [16] = test: Antiproliferative activity against human MDA-MB-231 cells measured after 24 hrs by MTT assay; assay type: functional
[17] = dose 5-20 µM, DDE = dose-dependent effect
[18] = dose 5-20 µM, tested as the 2H-labelled form, DDE = dose-dependent effect
[19] = dose 5-20 µM, DDE = dose-dependent effect, tested as the 2H-labelled form

SMILES: [2H]c1nc([2H])n(C2CCC(C)(C)C(/C=C/C(C)=C/C=C/C(C)=C/C(=O)Nc3ccc(F)cc3)=C2C)c1[2H] (racemic)
half-life [1]: 8.39 h
MRT [2]: 3.57 h
GI50 (MDA-MB-468 [3]): 280 nM
GI50 (MDA-MB-231 [4]): 710 nM
Cmax [5]: 151 ng/mL
Tmax [6]: 1.33 h
AUC [7]: 1740 ng·h/mL

SMILES: CC1=C(/C=C/C(C)=C/C=C/C(C)=C/C(=O)Nc2ccc(F)cc2)C(C)(C)CCC1n1ccnc1 (racemic; form 1) [listing 2 of 2 here]
Activity (MDA-MB-231 [8]; [17]): Dde
Activity (MDA-MB-231 [9]; [17]): Dde
Activity (MDA-MB-468 [10]; [17]): Dde
Activity (MDA-MB-468 [11]; [17]): Dde
Activity (MDA-MB-231 [12]; [17]): Dde
Activity (MDA-MB-468 [13]; [17]): Dde
Activity (MDA-MB-231 [14]; [17]): Dde
Activity (MDA-MB-231 [15]; [17]): Dde

SMILES: CC1=C(/C=C/C(C)=C/C=C/C(C)=C/C(=O)Nc2ccc(F)cc2)C(C)(C)CCC1n1ccnc1 (racemic; form 2)
Activity (MDA-MB-231 [8]; [18]): Dde
Activity (MDA-MB-231 [9]; [18]): Dde
Activity (MDA-MB-468 [10]; [19]): Dde
Activity (MDA-MB-468 [11]; [18]): Dde
Activity (MDA-MB-231 [12]; [18]): Dde
Activity (MDA-MB-468 [13]; [18]): Dde
Activity (MDA-MB-231 [14]; [19]): Dde
Activity (MDA-MB-231 [15]; [18]): Dde

SMILES: CC1=C(/C=C/C(C)=C/C=C/C(C)=C/C(=O)Nc2ccc(F)cc2)C(C)(C)CCC1n1ccnc1 (racemic; form 3)
Activity (MDA-MB-231 [8]; [19]): Dde
Activity (MDA-MB-231 [9]; [19]): Dde
Activity (MDA-MB-468 [10]; [18]): Dde
Activity (MDA-MB-468 [11]; [18]): Dde
Activity (MDA-MB-231 [12]; [19]): Dde
Activity (MDA-MB-468 [13]; [18]): Dde
Activity (MDA-MB-231 [14]; [19]): Dde
Activity (MDA-MB-231 [15]; [19]): Dde

SMILES: CC1=C(/C=C/C(C)=C/C=C/C(C)=C/C(=O)Nc2ccc(F)cc2)C(C)(C)CCC1n1ccnc1 (racemic; form 4)
Activity (MDA-MB-231 [8]; [19]): Dde
Activity (MDA-MB-231 [9]; [19]): Dde
Activity (MDA-MB-468 [10]; [18]): Dde
Activity (MDA-MB-468 [11]; [18]): Dde
Activity (MDA-MB-231 [12]; [19]): Dde
Activity (MDA-MB-468 [13]; [19]): Dde
Activity (MDA-MB-231 [14]; [19]): Dde
Activity (MDA-MB-231 [15]; [18]): Dde

SMILES: CC1=C(/C=C/C(C)=C/C=C/C(C)=C/C(=O)Nc2ccc(F)cc2)C(C)(C)CCC1n1ccnc1 (racemic; form 5)
Activity (MDA-MB-231 [8]; [18]): Dde
Activity (MDA-MB-231 [9]; [18]): Dde
Activity (MDA-MB-468 [10]; [18]): Dde
Activity (MDA-MB-468 [11]; [19]): Dde
Activity (MDA-MB-231 [12]; [18]): Dde
Activity (MDA-MB-468 [13]; [19]): Dde
Activity (MDA-MB-231 [14]; [18]): Dde
Activity (MDA-MB-231 [15]; [18]): Dde

SMILES: CC1=C(/C=C/C(C)=C/C=C/C(C)=C/C(=O)Nc2ccc(F)cc2)C(C)(C)CCC1n1ccnc1 (racemic; form 6)
Activity (MDA-MB-231 [8]; [18]): Dde
Activity (MDA-MB-231 [9]; [18]): Dde
Activity (MDA-MB-468 [10]; [19]): Dde
Activity (MDA-MB-468 [11]; [18]): Dde
Activity (MDA-MB-231 [12]; [18]): Dde
Activity (MDA-MB-468 [13]; [18]): Dde
Activity (MDA-MB-231 [14]; [18]): Dde
Activity (MDA-MB-231 [15]; [19]): Dde

SMILES: CC1=C(/C=C/C(C)=C/C=C/C(C)=C/C(=O)Nc2ccc(F)cc2)C(C)(C)CCC1n1ccnc1 (racemic; form 7)
Activity (MDA-MB-231 [8]; [18]): Dde
Activity (MDA-MB-231 [9]; [18]): Dde
Activity (MDA-MB-468 [10]; [19]): Dde
Activity (MDA-MB-468 [11]; [19]): Dde
Activity (MDA-MB-231 [12]; [18]): Dde
Activity (MDA-MB-468 [13]; [19]): Dde
Activity (MDA-MB-231 [14]; [19]): Dde
Activity (MDA-MB-231 [15]; [18]): Dde

SMILES: CC1=C(/C=C/C(C)=C/C=C/C(C)=C/C(=O)Nc2ccc(F)cc2)C(C)(C)CCC1n1ccnc1 (racemic; form 8)
Activity (MDA-MB-231 [8]; [19]): Dde
Activity (MDA-MB-231 [9]; [19]): Dde
Activity (MDA-MB-468 [10]; [19]): Dde
Activity (MDA-MB-468 [11]; [18]): Dde
Activity (MDA-MB-231 [12]; [18]): Dde
Activity (MDA-MB-468 [13]; [19]): Dde
Activity (MDA-MB-231 [14]; [19]): Dde
Activity (MDA-MB-231 [15]; [18]): Dde

SMILES: CC(=O)O[C@H]1C(=O)[C@@]2(C)[C@H]([C@H](OC(=O)c3ccccc3)[C@]3(O)C[C@H](OC(=O)[C@H](O)[C@@H](NC(=O)c4ccccc4)c4ccccc4)C(C)=C1C3(C)C)[C@]1(OC(C)=O)CO[C@@H]1C[C@@H]2O [PACLITAXEL]
GI50 (MDA-MB-468 [3]): 100 nM
GI50 (MDA-MB-231 [4]): 220 nM
GI50 (MDA-MB-231 [16]): 300 nM

The next lines start with the values.

half-life [1]: 10.3 h
MRT [2]: 8.92 h
GI50 (MDA-MB-468 [3]): 290 nM
GI50 (MDA-MB-231 [4]): 710 nM
Cmax [5]: 1620 ng/mL
Tmax [6]: 2.67 h
AUC [7]: 22600 ng·h/mL
SMILES: [2H]c1nc([2H])n(C2([2H])CCC(C)(C)C(/C=C/C(C)=C/C=C/C(C)=C/C(=O)Nc3c([2H])c([2H])c(F)c([2H])c3[2H])=C2C)c1[2H] (racemic)

half-life [1]: 4.27 h
MRT [2]: 5.49 h
GI50 (MDA-MB-468 [3]): 270 nM
GI50 (MDA-MB-231 [4]): 830 nM
Cmax [5]: 501 ng/mL
Tmax [6]: 0.67 h
AUC [7]: 2700 ng·h/mL
SMILES: [2H]c1nc([2H])n(C2([2H])CCC(C)(C)C(/C=C/C(C)=C/C=C/C(C)=C/C(=O)Nc3ccc(F)cc3)=C2C)c1[2H] (racemic)

half-life [1]: 4.34 h
MRT [2]: 2.89 h
GI50 (MDA-MB-468 [3]): 250 nM
GI50 (MDA-MB-231 [4]): 620 nM
Cmax [5]: 455 ng/mL
Tmax [6]: 0.83 h
AUC [7]: 2060 ng·h/mL
SMILES: [2H]c1nc([2H])n(C2CCC(C)(C)C(/C=C/C(C)=C/C=C/C(C)=C/C(=O)Nc3c([2H])c([2H])c(F)c([2H])c3[2H])=C2C)c1[2H] (racemic)

half-life [1]: 4.9 h
MRT [2]: 4.63 h
GI50 (MDA-MB-468 [3]): 270 nM
GI50 (MDA-MB-231 [4]): 770 nM
Cmax [5]: 273 ng/mL
Tmax [6]: 0.83 h
AUC [7]: 1730 ng·h/mL
SMILES: [2H]c1c([2H])c(NC(=O)/C=C(C)/C=C/C=C(C)/C=C/C2=C(C)C(n3ccnc3)CCC2(C)C)c([2H])c([2H])c1F (racemic)

half-life [1]: 12.1 h
MRT [2]: 9.06 h
GI50 (MDA-MB-468 [3]): 190 nM
GI50 (MDA-MB-231 [4]): 860 nM
Cmax [5]: 1030 ng/mL
Tmax [6]: 2.5 h
AUC [7]: 17600 ng·h/mL
SMILES: [2H]C1(n2ccnc2)CCC(C)(C)C(/C=C/C(C)=C/C=C/C(C)=C/C(=O)Nc2ccc(F)cc2)=C1C (racemic)

half-life [1]: 10.2 h
MRT [2]: 8.48 h
GI50 (MDA-MB-468 [3]): 270 nM
GI50 (MDA-MB-231 [4]): 620 nM
Cmax [5]: 1360 ng/mL
Tmax [6]: 0.75 h
AUC [7]: 15500 ng·h/mL
SMILES: [2H]c1c([2H])c(NC(=O)/C=C(C)/C=C/C=C(C)/C=C/C2=C(C)C([2H])(n3ccnc3)CCC2(C)C)c([2H])c([2H])c1F (racemic)

half-life [1]: 3.61 h
MRT [2]: 3.02 h
GI50 (MDA-MB-468 [3]): 400 nM
GI50 (MDA-MB-231 [4]): 830 nM
Cmax [5]: 4650 ng/mL
Tmax [6]: 0.83 h
AUC [7]: 22800 ng·h/mL
SMILES: CC1=C(/C=C/C(C)=C/C=C/C(C)=C/C(=O)Nc2ccc(F)cc2)C(C)(C)CCC1n1ccnc1 (racemic; form 1) [listing 1 of 2 here]
